Laboratory results taken from patent EP0845210A1, “New herbicidal compositions” (RHONE-POULENC AGRICULTURE LTD., priority 1994, dated 1996).

Legend:
Format in all cases: in vivo
[1] = test system: Digitaria sanguinalis; experiment: Procedure A: pre-emergence glasshouse pot test, growth reduction assessed two weeks after treatment
Description: (§1) Seed of the various species of broad-leaf or grass weeds were sown in unsterilised clay loam soil in 7 centimetre by 7 centimetre plastic plant pots. The pots were watered and allowed to drain. The soil surface was then sprayed with ranges of concentrations of either the individual herbicide or mixtures of two herbicides in various proportions, dissolved in a 50:50 by volume solution of acetone and water, using a track sprayer set to deliver the equivalent of 290 l/ha. All herbicides were used as unformulated technical materials except dimethenamid, which was used as the commercial formulation "Frontiere" (trade mark), a flowable containing 900g/l active ingredient; and alachlor, which was used as "Lasso" (trade mark), an emulsifiable concentrate formulation containing 480g/l active ingredient.
(§2) Treated pots were placed at random in four replicate blocks per treatment for each plant species. The pots were held, in a glasshouse, standing on moist capillary matting, under lights and with overhead watering twice daily.
(§3) Two weeks after treatment the percent reduction in plant growth, compared to an untreated control, was assessed.
(§4) Mean percent reduction in plant growth was calculated for each treatment. Dose/mean response was plotted on Log concentration/Probability graph paper, and lines fitted by eye. For herbicide mixtures a dose/response line for the first herbicide was drawn for each dose rate of the second herbicide and a dose/response line for the second herbicide was drawn for each dose rate of the first herbicide. The doses representing a 90% reduction in plant growth (LD90's) were read from these lines and plotted on graphs whose axes were dose rates of the two herbicides. The line joining these points is an Isobole i.e. a line joining points (mixtures) of equal activity, as described by P.M.L. Tammes, Neth. J. Plant Path. 70 (1964) : 73-80. A line was also drawn joining the LD90's of the individual components of the mixture. This line represents the theoretical isobole if the effect of the two components is additive i.e. there is no interaction between them. Isoboles falling below this line indicate synergy between the components while lines lying above it indicate antagonism.
(§5) In the tables that follow 'dose' represents the dose rate in grammes per hectare of the active ingredient used; and the figures for the weed control are percentages reduction in growth when compared with the untreated controls.

[2] = test system: Echinochloa crus-galli; experiment: as above
Description: as §1, §2, §3, §4, §5

[3] = test system: Setaria viridis; experiment: as above; details: Table A1
Description: as §1, §2, §3, §4, §5

[4] = test system: maize; experiment: Procedure C: field trial of crop phytotoxicity, visual assessment 40 days after sowing
Method: The experiments were carried out pre-emergence of the weed species at various research farm locations throughout the Mid-West corn belt in United States of America with Compounds A and D (each formulated as wettable powders) and metolachlor (formulated as a 96% emulsifiable concentrate), alachlor (formulated as a 48% emulsifiable concentrate) and dimethenamid (formulated as a 90% emulsifiable concentrate).
Various mixtures of the above 4-benzoylisoxazoles and chloroacetamides were weighed out and dissolved in water to give a solution containing the appropriate concentrations and ratios of active ingredients.
The solution was mixed for one hour and applied at a spray volume of 231 litres/hectare to a 3 metre by 5 metre test plot comprising the maize seed which were sown 2 days earlier. 3 replicates were performed. The experiments were performed using seven varities of maize (except for the mixtures comprising alachlor at 1120 g per hectare, where four varieties were used). A control plot was sprayed with a solution not containing test compound. Visual assessment of phytotoxicity was made 40 days after sowing the maize seeds based on a comparison with the control plot. Table F1

[5] = test system: Abutilon theophrasti; experiment: Procedure D: pre-emergence field trial (Volga, Brookings), visual assessment about 26 days after treatment; details: A 37.5 g/ha alone
Method: (§6) The following experiments were carried out pre-emergence of the weed species. Compound A, formulated as a wettable dispersible granule as described in Example 1 herebelow (750g per kilogram) and each acetochlor (used as the commercially available formulation "Harness" (trade mark), an emulsifiable concentrate containing 960g of acetochlor per kilogram, and which also contains the safening agent flurazole, metolachlor (used as the commercially available formulation "Duelor" (trade mark), an emulsifiable concentrate emulsifiable concentrate containing 960g of metolachlor per kilogram), alachlor (used as the commercially available formulation "Lasso" (trade mark), an emulsifiable concentrate containing 480g of alachlor per kilogram) and dimethenamid (used as the commercially available formulation "Frontiere" (trade mark), a flowable containing 900g/l active ingerident) were dissolved in water and sprayed at a volume rate of 187 litres/hectare on various test plots (10 square meters in area) either alone or in mixtures. The soil was a clay-loam, with a pH of 7, the experiments being conducted in June in Volga, Brookings, U.S.A. The various weed and crop species were drill sown and the various compositions were applied on the same day after drilling. Three replicates were performed and the efficacy of the various mixtures were determined by visual assessment of the percentage phytotoxicity in comparison with an untreated control. Assessment was made about 26 days after treatment. In the Tables which follow the dose is expressed in grammes per hectare and the figures in brackets represent the expected results according to the Colby formula.

[6] = test system: Helianthus annuus; experiment: as above; details: A 37.5 g/ha alone
Method: as §6

[7] = test system: Panicum miliaceum; experiment: as above; details: A 375 g/ha alone
Method: as §6

[8] = test system: maize (Zea mays); experiment: Procedure D: pre-emergence field trial (Volga, Brookings), crop phytotoxicity about 26 days after treatment; details: A 37.5 g/ha alone
Method: as §6

SMILES: CS(=O)(=O)c1cc(C(F)(F)F)ccc1C(=O)c1cnoc1C1CC1 [Compound A, 5-cyclopropyl-4-(2-methylsulphonyl-4-trifluoromethyl)benzoylisoxazole]
- percent reduction in plant growth ([1]; A 1 g/ha alone, Table B1): 18.75%
- percent reduction in plant growth ([1]; A 1 g/ha alone, Table D1): 0%
- percent reduction in plant growth ([1]; A 2 g/ha alone, Table B1): 20%
- percent reduction in plant growth ([1]; A 2 g/ha alone, Table C1): 20%
- percent reduction in plant growth ([1]; A 2 g/ha alone, Table D1): 12.5%
- percent reduction in plant growth ([1]; A 4 g/ha alone, Table B1): 33.75%
- percent reduction in plant growth ([1]; A 4 g/ha alone, Table C1): 40%
- percent reduction in plant growth ([1]; A 4 g/ha alone, Table D1): 17.5%
- percent reduction in plant growth ([1]; A 8 g/ha alone, Table B1): 67.5%
- percent reduction in plant growth ([1]; A 8 g/ha alone, Table C1): 7.5%
- percent reduction in plant growth ([1]; A 8 g/ha alone, Table D1): 61.25%
- percent reduction in plant growth ([1]; A 16 g/ha alone, Table B1): 50%
- percent reduction in plant growth ([1]; A 16 g/ha alone, Table C1): 50%
- percent reduction in plant growth ([1]; A 16 g/ha alone, Table D1): 67.5%
- percent reduction in plant growth ([1]; A 32 g/ha alone, Table B1): 73.5%
- percent reduction in plant growth ([1]; A 32 g/ha alone, Table C1): 74.75%
- percent reduction in plant growth ([1]; A 32 g/ha alone, Table D1): 66%
- percent reduction in plant growth ([1]; A 64 g/ha alone, Table B1): 87.5%
- percent reduction in plant growth ([1]; A 64 g/ha alone, Table C1): 80%
- percent reduction in plant growth ([1]; A 64 g/ha alone, Table D1): 95%
- percent reduction in plant growth ([1]; A 128 g/ha alone, Table C1): 93.5%
- percent reduction in plant growth ([1]; A 128 g/ha alone, Table D1): 76.25%
- percent reduction in plant growth ([1]; A 256 g/ha alone, Table D1): 98.75%
- percent reduction in plant growth ([2]; A 1 g/ha alone, Table B2): 12.5%
- percent reduction in plant growth ([2]; A 1 g/ha alone, Table D2): 11.25%
- percent reduction in plant growth ([2]; A 2 g/ha alone, Table B2): 6.25%
- percent reduction in plant growth ([2]; A 2 g/ha alone, Table C2): 3.75%
- percent reduction in plant growth ([2]; A 2 g/ha alone, Table D2): 7.5%
- percent reduction in plant growth ([2]; A 4 g/ha alone, Table B2): 1.25%
- percent reduction in plant growth ([2]; A 4 g/ha alone, Table C2): 2.5%
- percent reduction in plant growth ([2]; A 4 g/ha alone, Table D2): 15%
- percent reduction in plant growth ([2]; A 8 g/ha alone, Table B2): 61.25%
- percent reduction in plant growth ([2]; A 8 g/ha alone, Table C2): 32.5%
- percent reduction in plant growth ([2]; A 8 g/ha alone, Table D2): 15%
- percent reduction in plant growth ([2]; A 16 g/ha alone, Table B2): 71.25%
- percent reduction in plant growth ([2]; A 16 g/ha alone, Table C2): 60%
- percent reduction in plant growth ([2]; A 16 g/ha alone, Table D2): 62.5%
- percent reduction in plant growth ([2]; A 32 g/ha alone, Table B2): 75%
- percent reduction in plant growth ([2]; A 32 g/ha alone, Table C2): 90%
- percent reduction in plant growth ([2]; A 32 g/ha alone, Table D2): 86%
- percent reduction in plant growth ([2]; A 64 g/ha alone, Table B2): 93.5%
- percent reduction in plant growth ([2]; A 64 g/ha alone, Table C2): 97%
- percent reduction in plant growth ([2]; A 64 g/ha alone, Table D2): 87.5%
- percent reduction in plant growth ([2]; A 128 g/ha alone, Table B2): 93.75%
- percent reduction in plant growth ([2]; A 128 g/ha alone, Table C2): 99.75%
- percent reduction in plant growth ([2]; A 128 g/ha alone, Table D2): 99.5%
- percent reduction in plant growth ([2]; A 256 g/ha alone, Table D2): 92.5%
- percent reduction in plant growth ([3]; A 0.5 g/ha alone): 15%
- percent reduction in plant growth ([3]; A 1 g/ha alone): 5%
- percent reduction in plant growth ([3]; A 2 g/ha alone): 47.5%
- percent reduction in plant growth ([3]; A 4 g/ha alone): 33.75%
- percent reduction in plant growth ([3]; A 8 g/ha alone): 38.75%
- percent reduction in plant growth ([3]; A 16 g/ha alone): 53.75%
- percent reduction in plant growth ([3]; A 32 g/ha alone): 70%
- percent reduction in plant growth ([3]; A 64 g/ha alone): 76%
- percent reduction in plant growth ([3]; A 128 g/ha alone): 88.75%
- Visual assessment of phytotoxicity ([4]; A 78 g/ha alone): 0
- Visual assessment of phytotoxicity ([4]; A 105 g/ha alone): 0
- percentage phytotoxicity [5]: 93%
- percentage phytotoxicity [6]: 18%
- percentage phytotoxicity [7]: 65%
- percentage phytotoxicity [8]: 0%
